For this series the following is noted: pampa; 60.0 min; 50.0 µM.
By Papp is commonly meant a coefficient for how fast a substance crosses the barrier. Higher therefore signals ready permeation. The molecule `NC(=O)c1ccc(-c2ncc3cnc(-c4cccc(F)c4)cn23)cc1` came in with an apparent permeability coefficient (Papp) of 242 ×10⁻⁶ cm/s. As to `Cc1onc(-c2c(Cl)cccc2Cl)c1CC(=O)NCc1ccc(OCC(F)(F)F)nc1`, the apparent permeability coefficient (Papp) is 204 ×10⁻⁶ cm/s. With `N=c1c2c(-c3ccccc3)cn(Cc3ccccc3)c2ncn1CCCCO` the figure was 110 ×10⁻⁶ cm/s; with `NC(=O)N1CCC(CC(=O)N2CCC([C@H]3c4ncc(Br)cc4CCc4cc(Cl)cc(Br)c43)CC2)CC1`, 73.5 ×10⁻⁶ cm/s. With `CC1=C(C(=O)O)N2C(=O)C(NC(=O)C(N)C3=CCC=CC3)C2SC1` (stereo not drawn) the figure was less than 1 ×10⁻⁶ cm/s. As for `Cc1cccc(C#Cc2cc(F)cc(C#N)c2)n1`, the figure is 209 ×10⁻⁶ cm/s. `O=C(NO)c1cnc(NC2(c3ccccc3)CC2)nc1` had a Papp of 2 ×10⁻⁶ cm/s. With `Cn1nnnc1Sc1ncnc2scc(-c3cccc(C#N)c3)c12` the figure was 76 ×10⁻⁶ cm/s. With `CNC(=O)c1cc(Oc2ccc(NC(=O)Nc3cc(C(C)(C)C)nn3-c3ccc4ncccc4c3)c(F)c2)ccn1` the figure was 210 ×10⁻⁶ cm/s; with `CCOC(CCCn1cnc2c(c(-c3ccccc3)c(-c3ccccc3)n2Cc2ccccc2)c1=N)OCC`, 228 ×10⁻⁶ cm/s; with `CCOC(=O)c1cc(=O)c2c(OCC(COc3cccc4oc(C(=O)OCC)cc(=O)c34)OC(=O)[C@@H](N)CCCCN)cccc2o1`, less than 1 ×10⁻⁶ cm/s. As for `N=c1c2c(-c3ccccc3)c(-c3ccccc3)n(Cc3ccccc3)c2ncn1C1CCC(O)CC1` (stereo not drawn), the figure is 150 ×10⁻⁶ cm/s; as for `CC(C)N(CCCNC(=O)Nc1ccc(C(C)(C)C)cc1)C[C@H]1O[C@@H](n2ccc3c(N)ncnc32)[C@H](O)[C@@H]1O`, less than 1 ×10⁻⁶ cm/s; as for `CC(=O)Nc1c2sscc-2n(C)c1=O`, 16 ×10⁻⁶ cm/s.

As to `Oc1c(Cl)cc(Cl)cc1Sc1cc(Cl)cc(Cl)c1O`, the Papp came to 288 ×10⁻⁶ cm/s. Consider `NNC(=O)c1ccncc1`, for which the Papp was found to be 3 ×10⁻⁶ cm/s. On to `O=C1CCc2ccc(OCCCCN3CCN(c4cccc(Cl)c4Cl)CC3)cc2N1`, for which the Papp stood at 19 ×10⁻⁶ cm/s. As for `C[C@H]([C@@H](O)c1ccccc1)n1cnc2c(c(-c3ccccc3)c(-c3ccccc3)n2Cc2ccccc2)c1=N`, the figure is 3 ×10⁻⁶ cm/s. Take `N[C@@H](Cc1ccc(N(CCCl)CCCl)cc1)C(=O)O`: the Papp worked out at 131 ×10⁻⁶ cm/s. For the molecule `CCO/N=C(\C(=O)N[C@@H]1C(=O)N2C(C(=O)O)=C(Sc3nc(-c4cc[n+](C)cc4)cs3)CS[C@H]12)c1nsc(NP(=O)(O)O)n1`, the Papp was 2 ×10⁻⁶ cm/s. As to `O=C(NCc1ccc(OC(F)(F)F)cc1)C1c2ccccc2C(=O)N1C1CCOCC1` (stereo not drawn), the Papp was 42 ×10⁻⁶ cm/s. Turning to `COc1ccc(C)cc1Nc1c2c(nc3ccccc13)CCC2`, the Papp came out at 215 ×10⁻⁶ cm/s.

The molecule `O=C(CBr)N1CC([N+](=O)[O-])([N+](=O)[O-])C1` gave a Papp of less than 1 ×10⁻⁶ cm/s. With `CCCN(CCC)C1CCc2ccc(O)cc2C1` (stereo not drawn) the figure was 26 ×10⁻⁶ cm/s; with `O=C(NCC1CCOCC1)c1cnc(Nc2ccc(Cl)cc2Cl)nc1C(F)(F)F`, less than 1 ×10⁻⁶ cm/s. In turn, `CCOc1ccc2ccccc2c1C(=O)N[C@@H]1C(=O)N2[C@@H]1SC(C)(C)[C@@H]2C(=O)O` showed an apparent permeability coefficient (Papp) of less than 1 ×10⁻⁶ cm/s. With `N=c1c2c(-c3ccccc3)cn(Cc3ccccc3)c2ncn1CCO` the figure was 113 ×10⁻⁶ cm/s; with `Cc1ccc(CN2C(=O)C(=O)c3cc(Br)cc(C)c32)cc1`, 98.5 ×10⁻⁶ cm/s; with `CCOC(CCCn1cnc2c(c(-c3ccccc3)c(-c3ccccc3)n2CCc2ccccc2)c1=N)OCC`, less than 1 ×10⁻⁶ cm/s. As for `Cn1nnnc1Sc1ncnc2scc(-c3ccc(Cl)cc3)c12`, the figure is more than 300 ×10⁻⁶ cm/s; as for `Cn1nnnc1Sc1ncnc2scc(-c3ccc(C#N)cc3)c12`, 63 ×10⁻⁶ cm/s; as for `N=c1c2c(-c3ccccc3)cn(Cc3ccccc3)c2ncn1CCN`, 131 ×10⁻⁶ cm/s.

The molecule `CC1(C)S[C@@H]2[C@H](NC(=O)C(C(=O)Oc3ccc4c(c3)CCC4)c3ccccc3)C(=O)N2[C@H]1C(=O)O` (stereo partly drawn) returned a Papp of less than 1 ×10⁻⁶ cm/s. As for `FC(F)(F)c1ccccc1-c1cc(C(F)(F)F)c2nc(C3=NOC4(CCCCC4)C3)[nH]c2c1`, the Papp was 8 ×10⁻⁶ cm/s. With `C=CC1=C(C(=O)O)N2C(=O)[C@@H](NC(=O)/C(=N\OCC(=O)O)c3csc(N)n3)[C@H]2SC1` the figure was 2 ×10⁻⁶ cm/s; with `CCc1ccc(C2C(C(=O)Nc3ccccc3OC)=C(C)Nc3c(C(=O)Nc4ccc(C)cc4)cnn32)cc1` (stereo not drawn), 26 ×10⁻⁶ cm/s.

`N=c1c2c(-c3ccccc3)c(-c3ccccc3)n(Cc3ccccc3)c2ncn1CCN` came in with a Papp of 78 ×10⁻⁶ cm/s. The molecule `C=CC1=C(C(=O)O)N2C(=O)[C@@H](NC(=O)/C(=N/OCC(=O)O)c3csc(N)n3)[C@H]2SC1` had a Papp of 4 ×10⁻⁶ cm/s. With `Cc1cc(=O)c(C(=O)N[C@@H](C(=O)N[C@@H]2C(=O)N3C(C(=O)O)=C(CSc4nnnn4C)CS[C@H]23)c2ccc(O)cc2)c[nH]1` the figure was less than 1 ×10⁻⁶ cm/s; with `CC(=O)NC[C@H]1CN(c2ccc(N3CCOCC3)c(F)c2)C(=O)O1`, 5 ×10⁻⁶ cm/s.

In the case of `N=c1c2c(-c3ccccc3)c(-c3ccccc3)n(CCc3ccccc3)c2ncn1[C@H](CO)Cc1ccccc1`, the Papp is less than 1 ×10⁻⁶ cm/s. As for `CN1CCN(C(=O)Cc2c[nH]c3ncc(-c4ccccc4Oc4ccccc4)cc23)CC1`, the figure is 299 ×10⁻⁶ cm/s; as for `COc1cc(C(C)C)c(Oc2cnc(NC(CO)CO)nc2N)cc1I`, 103 ×10⁻⁶ cm/s.

`NC1CCN(C(=O)C2CCCN(c3nc(-c4ccccc4)nc4c3CCC4)C2)CC1` (stereo not drawn) returned a Papp of 179 ×10⁻⁶ cm/s.

The molecule `COCCn1cnc2c(c(-c3ccccc3)cn2Cc2ccccc2)c1=N` had a Papp of 139 ×10⁻⁶ cm/s. With `O=C(N[C@H]1CCS[C@H]2CCC[C@@H](C(=O)O)N2C1=O)[C@@H](S)Cc1ccccc1` the figure was less than 1 ×10⁻⁶ cm/s; with `CC[C@@]1(O)C(=O)OCc2c1cc1n(c2=O)Cc2c-1nc1ccccc1c2/C=N/OC(C)(C)C`, 81 ×10⁻⁶ cm/s; with `Cn1nnnc1SCC1=C(C(=O)O)N2C(=O)[C@H](NC(=O)C(O)c3ccccc3)C2SC1` (stereo partly drawn), less than 1 ×10⁻⁶ cm/s. As for `C=Cc1c(C)c2cc3nc(c(CC(=O)N[C@@H](CC(=O)O)C(=O)O)c4nc(cc5[nH]c(cc1[nH]2)c(C)c5CC)C(C)=C4C(=O)O)[C@@H](CCC(=O)O)[C@@H]3C`, the figure is less than 1 ×10⁻⁶ cm/s; as for `COc1cc2c(Nc3ccc(Cl)c(Cl)c3F)ncnc2cc1OCC1C[C@@H]2CN(C)C[C@@H]2C1` (stereo partly drawn), more than 300 ×10⁻⁶ cm/s.

In turn, `CC(=O)OCC1=C(C(=O)O)N2C(=O)[C@@H](N)[C@H]2SC1` gave a Papp of less than 1 ×10⁻⁶ cm/s. As for `CO/N=C(\C(=O)N[C@@H]1C(=O)N2C(C(=O)OCOC(=O)C(C)(C)C)=C(/C=C\c3scnc3C)CS[C@H]12)c1csc(N)n1`, the figure is 11 ×10⁻⁶ cm/s; as for `O=C(O)[C@@H]1C[C@H]2C[C@@H](CCc3nn[nH]n3)CC[C@H]2CN1`, 3 ×10⁻⁶ cm/s; as for `Oc1ccc2nc(CN3CCC(Cc4ccccc4F)CC3)[nH]c2c1`, 107 ×10⁻⁶ cm/s. As for `CCOc1ccc(-c2nn3ncccc3c2-c2ccc(S(C)(=O)=O)cc2)cc1`, the figure is 111 ×10⁻⁶ cm/s.

`CN1N=C2CCN(C(=O)[C@H](COCc3ccccc3)NC(=O)C(C)(C)N)C[C@]2(Cc2ccccc2)C1=O` gave a Papp of 15 ×10⁻⁶ cm/s. In the case of `CCCC(C)(COC(N)=O)COC(=O)NC(C)C` (stereo not drawn), the Papp was found to be 11 ×10⁻⁶ cm/s. The molecule `O=C(NN1CCCCC1)c1nn(-c2ccc(Cl)cc2Cl)c(-c2ccc(C#Cc3ccc(C(F)(F)F)cc3)s2)c1CNS(=O)(=O)N1CCCC1` returned a Papp of 4 ×10⁻⁶ cm/s. Molecule `CC1CN(c2cc3c(cc2F)c(=O)c(C(=O)O)cn3-c2ccc(F)cc2F)CCN1` (stereo not drawn) registered a Papp of 5 ×10⁻⁶ cm/s. With `O=C1NC(Nc2ccccc2)=N/C1=C\c1ccc2c(c1)OCO2` the figure was less than 1 ×10⁻⁶ cm/s. Molecule `N=c1c2c(-c3ccccc3)c(-c3ccccc3)n(CCc3ccccc3)c2ncn1C1CCN(Cc2ccccc2)CC1` showed an apparent permeability coefficient (Papp) of 14 ×10⁻⁶ cm/s. As to `CN1CCN(c2ccc(C(=O)Nc3n[nH]c4ccc(Cc5cc(F)cc(F)c5)cc34)c(NC3CCOCC3)c2)CC1`, the Papp came to 113 ×10⁻⁶ cm/s. As for `Cc1ccc(-n2c(C)cc(-c3nnc4n3CCCCC4)c2C)cc1`, the figure is 192 ×10⁻⁶ cm/s; as for `CCOC(=O)c1ccc(NC(=O)c2sc3nc4c(cc3c2N)N2CCC4CC2)cc1`, 255 ×10⁻⁶ cm/s; as for `CC(=O)c1cc2c(s1)c1cnn(Cc3ccccc3F)c(=O)c1n2C`, more than 300 ×10⁻⁶ cm/s.

`CC(Oc1ccccc1)C(=O)N[C@@H]1C(=O)N2[C@@H]1SC(C)(C)[C@@H]2C(=O)O` (stereo partly drawn): the Papp was determined as 25 ×10⁻⁶ cm/s.

As to `N#Cc1cccc(NC(=O)c2sc3nc4c(cc3c2N)N2CCC4CC2)c1`, the Papp is 142 ×10⁻⁶ cm/s. In turn, `CC1(C#N)CCN(c2c(C(=O)N3CCN(S(C)(=O)=O)CC3)cnc3ccc(F)cc23)CC1` came in with a Papp of 19 ×10⁻⁶ cm/s. With `CC#CCC(C)[C@H](O)/C=C/[C@@H]1[C@H]2c3cccc(CCCC(=O)O)c3O[C@H]2C[C@H]1O` (stereo partly drawn) the figure was less than 1 ×10⁻⁶ cm/s. With `O=C(Cc1cccs1)NC1C(=O)N2C(C(=O)[O-])=C(C[n+]3ccccc3)CSC12` (stereo not drawn) the figure was less than 1 ×10⁻⁶ cm/s; with `O=C(/C=C\n1cnc(-c2cc(C(F)(F)F)cc(C(F)(F)F)c2)n1)N1CC(F)(F)C1`, 121 ×10⁻⁶ cm/s; with `CCOc1ccc(CCNC(=O)c2cc3ccccc3n2Cc2cccc(C)n2)cc1OCC`, 271 ×10⁻⁶ cm/s. With `N#Cc1ccc(C(=O)Nc2ccc(Cl)c(-c3nc4ncccc4o3)c2)c(F)c1` the figure was 160 ×10⁻⁶ cm/s.

As for `N=c1c2c(-c3ccccc3)c(-c3ccccc3)n(CCc3ccccc3)c2ncn1CCCCCO`, the Papp was 183 ×10⁻⁶ cm/s. As for `CC(=O)NCCNC(=O)c1ccc(-c2ncc3cnc(-c4cccc(F)c4)cn23)cc1`, the figure is 11 ×10⁻⁶ cm/s. Molecule `CN(CCCCCCN(C)C(=O)Oc1ccc[n+](C)c1)C(=O)Oc1ccc[n+](C)c1` had a Papp of less than 1 ×10⁻⁶ cm/s. As for `Cn1cnc2c(F)c(Nc3ccc(Br)cc3F)c(C(=O)NOCCO)cc21`, the Papp came to 19.3 ×10⁻⁶ cm/s.

Molecule `COc1cc2c(cc1OC)[C@@H](Cc1cc(OC)c(OC)c(OC)c1)[N+](C)(CCCOC(=O)CC/C=C/CCC(=O)OCCC[N+]1(C)CCc3cc(OC)c(OC)cc3[C@H]1Cc1cc(OC)c(OC)c(OC)c1)CC2` (stereo partly drawn) registered a Papp of less than 1 ×10⁻⁶ cm/s.

Values taken from PubChem BioAssay AID1845228.
